Assay results from PubChem BioAssay AID228 (DTP/NCI, 2004).
Several values for one entry are separate records, joined by “and”; a condition that tells them apart may be missing. Equal entries are not always repeated. Results filed as inconclusive are left out.

Test system: BDF1 mice, Friend leukemia sc, tumor weight T/C
Assay: NCI In Vivo Anticancer Drug Screen. Data for tumor model Friend Virus Leukemia (Solid) (subcutaneous) in B6D2F1 (BDF1) mice
Conditions: endpoint: mean tumor weight, higher = larger tumour
Description: The antitumor activity of compounds was measured in mice bearing transplantable tumors. Survival or tumor size were measured and the results are expressed as the measurement made in the treated group (T) divided by the measurement made in the vehicle treated control group (C). The tumor model used in this assay is Friend Virus Leukemia (Solid) (subcutaneous) in B6D2F1 (BDF1) mice

SMILES: CN(C)C1C(=O)C(C(N)=O)=C(O)C2(O)C(=O)C3=C(O)c4c(O)cccc4C(C)(O)C3C(O)C12 (configuration not stated)
- T/C (dose: 19.5 mg/kg/injection, schedule: Q01DX011 (ip), vehicle: carboxymethylcellulose (CMC)): 94 % of control
- T/C (dose: 78.0 mg/kg/injection, schedule: Q01DX011 (ip), vehicle: carboxymethylcellulose (CMC)): 115 % of control
- T/C (dose: 156.0 mg/kg/injection, schedule: Q01DX011 (ip), vehicle: carboxymethylcellulose (CMC)): 95 % of control

SMILES: C1OC1C1CO1 (configuration not stated)
- T/C (dose: 4.5 mg/kg/injection, schedule: Q01DX011 (ip), vehicle: carboxymethylcellulose (CMC)): 77 % of control
- T/C (dose: 9.0 mg/kg/injection, schedule: Q01DX011 (ip), vehicle: carboxymethylcellulose (CMC)): 107 % of control and 115 % of control
- T/C (dose: 18.0 mg/kg/injection, schedule: Q01DX011 (ip), vehicle: carboxymethylcellulose (CMC)): 70 % of control and 83 % of control

SMILES: CC(=O)OCC(=O)[C@@]1(O)CC[C@H]2[C@@H]3CCC4=CC(=O)CC[C@]4(C)[C@H]3C(=O)C[C@@]21C
- T/C (dose: 5.62 mg/kg/injection, schedule: Q01DX011 (sc), vehicle: steriod suspending solution): 59 % of control
- T/C (dose: 8.0 mg/kg/injection, schedule: Q01DX011 (sc), vehicle: steriod suspending solution): 97 % of control
- T/C (dose: 11.25 mg/kg/injection, schedule: Q01DX011 (sc), vehicle: steriod suspending solution): 33 % of control
- T/C (dose: 16.0 mg/kg/injection, schedule: Q01DX011 (sc), vehicle: steriod suspending solution): 69 % of control
- T/C (dose: 22.5 mg/kg/injection, schedule: Q01DX011 (sc), vehicle: steriod suspending solution): 21 % of control
- T/C (dose: 31.0 mg/kg/injection, schedule: Q01DX011 (sc), vehicle: steriod suspending solution): 15 % of control and 29 % of control (2×)
- T/C (dose: 34.0 mg/kg/injection, schedule: Q01DX011 (sc), vehicle: steriod suspending solution): 50 % of control
- T/C (dose: 45.0 mg/kg/injection, schedule: Q01DX011 (sc), vehicle: steriod suspending solution): 13 % of control
- T/C (dose: 62.0 mg/kg/injection, schedule: Q01DX011 (sc), vehicle: steriod suspending solution): 7 % of control and 9 % of control and 18 % of control
- T/C (dose: 68.0 mg/kg/injection, schedule: Q01DX011 (sc), vehicle: steriod suspending solution): 28 % of control
- T/C (dose: 125.0 mg/kg/injection, schedule: Q01DX011 (sc), vehicle: steriod suspending solution): 3 % of control and 15 % of control and 20 % of control
- T/C (dose: 250.0 mg/kg/injection, schedule: Q01DX011 (sc), vehicle: steriod suspending solution): 3 % of control and 6 % of control and 20 % of control

SMILES: Nc1nc2n[nH]nc2c(=O)[nH]1
- T/C (dose: 11.12 mg/kg/injection, schedule: Q01DX011 (ip), vehicle: carboxymethylcellulose (CMC)): 158 % of control
- T/C (dose: 11.8 mg/kg/injection, schedule: Q01DX011 (ip), vehicle: other): 190 % of control
- T/C (dose: 22.7 mg/kg/injection, schedule: Q01DX011 (ip), vehicle: other): 189 % of control
- T/C (dose: 45.5 mg/kg/injection, schedule: Q01DX011 (ip), vehicle: other): 152 % of control
- T/C (dose: 89.0 mg/kg/injection, schedule: Q01DX011 (ip), vehicle: carboxymethylcellulose (CMC)): 44 % of control
- T/C (dose: 89.0 mg/kg/injection, schedule: Q01DX011 (ip), vehicle: other): 123 % of control

SMILES: OCC1OC(n2cnc3c(=S)nc[nH]c32)C(O)C1O (configuration not stated)
- T/C (dose: 0.1 mg/kg/injection, schedule: Q01DX011 (ip), vehicle: carboxymethylcellulose (CMC)): 82 % of control and 92 % of control
- T/C (dose: 0.25 mg/kg/injection, schedule: Q01DX011 (ip), vehicle: carboxymethylcellulose (CMC)): 45 % of control
- T/C (dose: 10.0 mg/kg/injection, schedule: Q01DX011 (ip), vehicle: carboxymethylcellulose (CMC)): 54 % of control
- T/C (dose: 15.0 mg/kg/injection, schedule: Q01DX011 (ip), vehicle: carboxymethylcellulose (CMC)): 1 % of control and 8 % of control
- T/C (dose: 25.0 mg/kg/injection, schedule: Q01DX011 (ip), vehicle: carboxymethylcellulose (CMC)): 17 % of control
- T/C (dose: 50.0 mg/kg/injection, schedule: Q01DX011 (ip), vehicle: carboxymethylcellulose (CMC)): 13 % of control
- T/C (dose: 62.0 mg/kg/injection, schedule: Q01DX011 (ip), vehicle: carboxymethylcellulose (CMC)): 2 % of control
- T/C (dose: 100.0 mg/kg/injection, schedule: Q01DX011 (ip), vehicle: carboxymethylcellulose (CMC)): 8 % of control
- T/C (dose: 125.0 mg/kg/injection, schedule: Q01DX011 (ip), vehicle: carboxymethylcellulose (CMC)): 1 % of control

SMILES: CC(/C=N\N=C(N)N)=N/N=C(N)N
- T/C (dose: 5.7 mg/kg/injection, schedule: Q01DX011 (ip), vehicle: carboxymethylcellulose (CMC)): 111 % of control
- T/C (dose: 11.5 mg/kg/injection, schedule: Q01DX011 (ip), vehicle: carboxymethylcellulose (CMC)): 70 % of control
- T/C (dose: 23.0 mg/kg/injection, schedule: Q01DX011 (ip), vehicle: carboxymethylcellulose (CMC)): 96 % of control

SMILES: NC(Cc1cccs1)C(=O)O (configuration not stated)
- T/C (dose: 250.0 mg/kg/injection, schedule: Q01DX011 (ip), vehicle: carboxymethylcellulose (CMC)): 112 % of control
